Assay type in all cases: cell-based
The test system of assay [1] is nuclear localization of NF-κB induced by LPS in THP1 cells. As to the kind of experiment: Cellular phenotype screening in a 96-well microplate: imaging cell sorter sorting, then enrichment of first barcode nucleic acid sequences. Particulars: sorted for absence of NF-κB nuclear localization under LPS stimulation; value above 1 = more concentrated than before sorting; TAK242 at 30 μM; FIG. 21. The procedure:
In accordance with the schematic diagram illustrated in FIG. 18, a search was carried out for test targets which cause a desired phenotypic change (in the example of FIG. 18, test substances which inhibit nuclear localization of NF-κB induced by LPS).
Specifically, in each well of a 96-well microplate, the first barcode nucleic acids were attached to cells (THP1 cells) according to the method described in Reference Example 1 and further brought into contact with test substances. At this time, different types and concentrations of the test substance and different types of the first barcode nucleic acids were used in each well. Due to this, 96 types of test targets (24 types of test substances×4 types of concentrations) were associated with 96 types of first barcode nucleic acids which are attached to the cells (THP1 cells). […]
Next, in the same manner as the examples described above, a single cell analysis was performed on the cell mixture solution sorted and recovered by the imaging cell sorter. Specifically, when reading out the DNA barcodes modifying each cell and cell-derived genetic information, the Chromium Controller apparatus and the Single Cell 3′ Reagent Kit v3 manufactured by 10× Genomics, which is a single cell analysis technology using a droplet technique as in Example 5 and Example 6, were used. […]

In assay [2] the test system is nuclear localization of NF-κB in THP1 cells. As to the kind of experiment: Nuclear localization score of sorted cells by image flow cytometry. Particulars: cells treated with LPS and test substance (TAK242 30 μM); higher value indicates higher degree of nuclear localization; FIG. 22. As to the method:
The photographic images of the cells were captured by an image flow cytometry and the nuclear localization scores were also calculated by the imaging flow cytometry. Regarding the nuclear localization scores, a higher value indicates a higher degree of nuclear localization.

For assay [3], the system named is NFκB protein nuclear localization in THP1 cells. As to the kind of experiment: NFκB protein localization by immunostaining and fluorescent light microscope in cells treated with the drug. Particulars: LPS 2 μg/mL, 2 hours at 37 degrees, fluorescent light microscope, FIG. 7. As to the method: Next, cells collected by centrifugation in advance were added to the tube 1 and incubated. The cells used at this time were THP1 cells and the cell concentration was set to 1×10^7 cells/mL. The incubation was carried out for 5 minutes at room temperature.
Cells were resuspended in RPM1-1640 medium with 10% FBS and 50 μM 2-mercaptoethanol in the tube 1 and the tube 2, respectively. Next, as a drug, lipopolysaccharide (LPS) suspended in dimethyl sulfoxide (DMSO) was added to tube 1 only, at a final concentration of 2 μg/mL. In the tube 2, only DMSO, the solvent for the drug, was added. Next, the tube 1 and the tube 2 were incubated for 2 hours at 37 degrees in CO2, respectively. Through the experiment up to here, the drug condition whether the drug LPS is present or not, was respectively associated to each of the cells by corresponding each cell to the first barcode nucleic acid type A or the second barcode nucleic acid type B.
Next, some cells were collected from the tube 1 and the tube 2, respectively. […]

Consider `C=C1C(=O)O[C@@H]2/C=C(\C)CC/C=C(\C)CC[C@@H]12` [Costunolide], for which the “enrichment level of the first barcode nucleic acid sequence of the sorted cells” value in assay [1] is listed as “significantly enriched”. The nuclear localization score in assay [2] is listed as 0.23.
Regarding `CCOC(=O)C1=CCCC[C@H]1S(=O)(=O)Nc1ccc(F)cc1Cl` [TAK242], the “enrichment level of the first barcode nucleic acid sequence of the sorted cells” value in assay [1] is given as “approximately 1.5 fold”. The compound also registered a nuclear localization score in assay [2] of 0.92.
Compound lipopolysaccharide [LPS] registered a nuclear localization score in assay [2] of 0.30. Also, the “localization of NFκB protein” value in assay [3] is given as “almost all of the NFκB protein was localized in the nucleus”.

These data come from patent US12644203B2, “Cellular phenotype screening method” (ThinkCyte, Inc., priority 2020, dated 2026).
